Laboratory results from US7972390B2, “Methods for controlling crystal growth, crystallization, structures and phases in materials and systems” (GR Intellectual Reserve, LLC, priority 2003, dated 2011).

Experiments:
[1] = Example 8d: phenyl salicylate solubility in neon-lamp conditioned vs unconditioned acetone at room temperature; format: physicochemical; conditions: equilibrated about 20 hours
Procedure: Acetone (about 1 ml) was pipetted into small glass test tubes and stoppers placed in the tube. […] Tubes were conditioned under a neon lamp; (about 8 mW/cm^2) in an otherwise dark room for about 1.5 hours at about 28° C. ambient temperature. Tubes were also placed simultaneously in an incubator at about 28° C. for about 1.5 hours.
Phenyl salicylate (about 3.50 grams) was added to each tube leaving a layer undissolved on the bottom of each tube. The solutions were allowed to equilibrate overnight (about 20 hours). Solution was filtered over the crystals and 0.500 ml pipetted into fresh tubes.
After the acetone evaporated, dry weights of phenyl salicylate per ml dissolved in conditioned and unconditioned acetone were determined.

[2] = Example 8c: sugar solubility in sodium-lamp conditioned vs control water at room temperature; format: physicochemical; conditions: for Percent sugar by weight: 23.5° C.
Procedure: Source, Greeneville Municipal Water supply, Greeneville, Tenn. […] Length 12″.
One beaker “KK” was placed under a sodium lamp 112 for about three hours, as configured in FIG. 97f, while the other Beaker “IL” functioning as the control was placed in an incubator for about three hours at an internal temperature of about 28° C.
Sugar (about 300 grams) was then added to each beaker and stirred.

Compound | Average amount of phenyl salicylate dissolved ([1]; acetone conditioned under neon lamp about 1.5 hours) [g/mL] | Average amount of phenyl salicylate dissolved ([1]; unconditioned acetone (incubator about 1.5 hours)) [g/mL] | Percent sugar by weight ([2]; Beaker KK: water under Na lamp three hours) [%] | Percent sugar by weight ([2]; Beaker LL: control water 3 hours in incubator) [%] | More sucrose by weight dissolved by conditioned water than by unconditioned control water ([2]; after three hours exposure of the water to the sodium lamp)
O=C(Oc1ccccc1)c1ccccc1O [phenyl salicylate, Phenyl salicylate] | 0.78 | 0.68 |  |  | 
OC[C@H]1O[C@@](CO)(O[C@H]2O[C@H](CO)[C@@H](O)[C@H](O)[C@H]2O)[C@@H](O)[C@@H]1O [sucrose, Sucrose] |  |  | 39.1 | 36.7 | about 2.4%
